Activity calls are given as the source filed them. The calls are words filed in the database; no cut-off is given here.
Columns and labels:
[1] = biological target: P2Y purinoceptor 1 (Rattus norvegicus) (UniProt P49651); assay: Induction of thermodynamic stability of P2Y1 receptor in rat platelet-rich plasma incubated for 30 mins followed by heat exposure at 61 degreeC for 10 mins by CETSA; type: cell-free; conditions: dose <= 100.0 µM, time 40.0 min
[2] = Metabolic stability in human liver microsomes assessed as parent compound remaining at 1 uM measured after 3 hrs in presence of NADPH by LC-MS/MS analysis; type: ADME, Microsome; conditions: read-out: Stability
[3] = Metabolic stability in rat liver microsomes assessed as parent compound remaining at 1 uM measured after 3 hrs in presence of NADPH by LC-MS/MS analysis; type: ADME, Microsome; conditions: read-out: Stability
[4] = biological target: T1, CYP1A2 (Homo sapiens, UniProt P05177); assay: Inhibition of CYP1A2 in human liver microsomes using phenacetin as substrate at 10 uM preincubated for 5 min followed by NADPH addition measured after 120 mins by LC-MS/MS analysis relative to control; type: ADME, Microsome; conditions: probe phenacetin, time 125 min
T1 sequence (P05177 whole entry): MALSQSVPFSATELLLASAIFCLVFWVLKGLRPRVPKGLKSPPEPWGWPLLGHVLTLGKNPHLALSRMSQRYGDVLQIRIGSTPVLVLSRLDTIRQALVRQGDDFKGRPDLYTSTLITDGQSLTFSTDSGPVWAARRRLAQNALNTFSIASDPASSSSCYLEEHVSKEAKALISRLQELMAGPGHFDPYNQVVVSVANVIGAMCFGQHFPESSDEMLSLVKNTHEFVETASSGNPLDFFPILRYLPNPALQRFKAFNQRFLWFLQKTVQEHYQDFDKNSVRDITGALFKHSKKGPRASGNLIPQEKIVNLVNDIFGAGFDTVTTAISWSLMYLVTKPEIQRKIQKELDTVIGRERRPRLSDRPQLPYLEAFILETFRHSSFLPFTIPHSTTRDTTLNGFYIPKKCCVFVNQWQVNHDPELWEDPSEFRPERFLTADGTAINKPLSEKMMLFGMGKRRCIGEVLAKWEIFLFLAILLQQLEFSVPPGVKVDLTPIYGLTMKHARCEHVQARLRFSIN

[5] = biological target: CYP2E1 (Homo sapiens, UniProt P05181); assay: Inhibition of CYP2E1 in human liver microsomes using chlorzoxazone as substrate at 10 uM preincubated for 5 min followed by NADPH addition measured after 120 mins by LC-MS/MS analysis relative to control; type: ADME, Microsome; conditions: probe chlorzoxazone, time 125 min
[6] = Half life male Sprague-Dawley rat at 10 mg/kg, po measured up to 24 hrs by LC-MS/MS analysis; type: ADME, organism-based; conditions: in vivo
[7] = MRT (0 to infinity) male Sprague-Dawley rat at 10 mg/kg, po measured up to 24 hrs by LC-MS/MS analysis; type: ADME, organism-based; conditions: in vivo
[8] = Apparent volume of distribution male Sprague-Dawley rat at 10 mg/kg, po measured up to 24 hrs by LC-MS/MS analysis; type: ADME, organism-based; conditions: in vivo
[9] = Apparent volume of distribution male Sprague-Dawley rat at 10 mg/kg, iv measured up to 24 hrs by LC-MS/MS analysis; type: ADME, organism-based; conditions: in vivo, read-out: Vz
[10] = system: Rattus norvegicus; assay: Neuroprotective activity in MCAO-induced brain damage Sprague-Dawley rat model assessed as tightly arranged hippocampal neurons at 2.5 to 10 mg/kg, iv administered immediately after arterial occlusion measured after 24 hrs by H and E staining based analysis; type: functional, organism-based; conditions: dose 2.5-10 mg/kg

Chain of P2Y purinoceptor 1 (Rattus norvegicus) (P49651 whole entry): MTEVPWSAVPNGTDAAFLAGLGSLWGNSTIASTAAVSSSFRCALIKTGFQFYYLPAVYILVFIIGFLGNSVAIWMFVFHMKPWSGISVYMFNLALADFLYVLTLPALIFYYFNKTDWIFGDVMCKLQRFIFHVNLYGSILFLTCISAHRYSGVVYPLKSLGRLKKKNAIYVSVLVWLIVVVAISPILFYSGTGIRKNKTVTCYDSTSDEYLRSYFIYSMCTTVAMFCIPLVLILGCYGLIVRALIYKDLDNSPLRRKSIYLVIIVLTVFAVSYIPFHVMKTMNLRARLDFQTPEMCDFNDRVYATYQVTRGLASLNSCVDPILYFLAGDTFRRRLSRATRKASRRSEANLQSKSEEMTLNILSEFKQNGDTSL
Chain of CYP2E1 (P05181 whole entry): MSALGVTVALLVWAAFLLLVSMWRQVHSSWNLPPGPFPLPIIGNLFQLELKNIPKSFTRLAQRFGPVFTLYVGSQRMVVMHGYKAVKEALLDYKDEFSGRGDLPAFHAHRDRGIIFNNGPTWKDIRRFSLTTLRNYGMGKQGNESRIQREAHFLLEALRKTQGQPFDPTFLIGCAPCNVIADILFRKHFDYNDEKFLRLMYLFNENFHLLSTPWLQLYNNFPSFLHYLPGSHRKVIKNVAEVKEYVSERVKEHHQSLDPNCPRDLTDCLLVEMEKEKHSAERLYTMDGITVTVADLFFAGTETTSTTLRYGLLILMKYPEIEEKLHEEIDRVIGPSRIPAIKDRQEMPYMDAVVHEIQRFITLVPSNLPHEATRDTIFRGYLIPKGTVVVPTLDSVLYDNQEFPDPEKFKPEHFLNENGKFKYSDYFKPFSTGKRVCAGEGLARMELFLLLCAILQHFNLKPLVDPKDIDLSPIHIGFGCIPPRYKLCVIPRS

Row | SMILES | Activity [1] | remaining at 3 h, 1 µM [2] [%] | remaining at 3 h, 1 µM [3] [%] | inhibition at 2 h, 10 µM [4] [%] | inhibition at 2 h, 10 µM [5] [%] | t1/2 [6] [min] | MRT inf [7] [min] | Vz [8] [L/kg] | Vd [9] [L/kg] | Activity [10]
1 | N#Cc1cccc(Oc2nc(-c3cccc(C#N)c3)ncc2C(=O)O)c1 | Dose-dependent-effect | 76.9 | 71.5 | 6.5 | 36.4 | 15.7 | 18.4 | 7.668 | 0.404 | Active
2 | N#Cc1cccc(-c2nc(C(F)F)c(C(=O)O)n2OCc2csc(N)n2)c1 | Dose-dependent-effect | 92.5 | 99.4 | 9 | 50.2 | – | – | – | 0.338 | Active
